According to US8940310B2, “Methods of treatment using TLR7 and/or TLR9 inhibitors” (Dynavax Technologies Corporation, priority 2010, dated 2015):
Entries after “also recorded” stand apart in the source; their conditions may differ. [I] = hypoxanthine (inosine)

Experiments:
[1] = target: T1, TLR7 (Homo sapiens, UniProt Q9NYK1); assay type: cell-based
T1 construct: endogenous in cells; host or cells: primary human plasmacytoid dendritic cells from blood donors
T1 sequence (Q9NYK1 27-1049): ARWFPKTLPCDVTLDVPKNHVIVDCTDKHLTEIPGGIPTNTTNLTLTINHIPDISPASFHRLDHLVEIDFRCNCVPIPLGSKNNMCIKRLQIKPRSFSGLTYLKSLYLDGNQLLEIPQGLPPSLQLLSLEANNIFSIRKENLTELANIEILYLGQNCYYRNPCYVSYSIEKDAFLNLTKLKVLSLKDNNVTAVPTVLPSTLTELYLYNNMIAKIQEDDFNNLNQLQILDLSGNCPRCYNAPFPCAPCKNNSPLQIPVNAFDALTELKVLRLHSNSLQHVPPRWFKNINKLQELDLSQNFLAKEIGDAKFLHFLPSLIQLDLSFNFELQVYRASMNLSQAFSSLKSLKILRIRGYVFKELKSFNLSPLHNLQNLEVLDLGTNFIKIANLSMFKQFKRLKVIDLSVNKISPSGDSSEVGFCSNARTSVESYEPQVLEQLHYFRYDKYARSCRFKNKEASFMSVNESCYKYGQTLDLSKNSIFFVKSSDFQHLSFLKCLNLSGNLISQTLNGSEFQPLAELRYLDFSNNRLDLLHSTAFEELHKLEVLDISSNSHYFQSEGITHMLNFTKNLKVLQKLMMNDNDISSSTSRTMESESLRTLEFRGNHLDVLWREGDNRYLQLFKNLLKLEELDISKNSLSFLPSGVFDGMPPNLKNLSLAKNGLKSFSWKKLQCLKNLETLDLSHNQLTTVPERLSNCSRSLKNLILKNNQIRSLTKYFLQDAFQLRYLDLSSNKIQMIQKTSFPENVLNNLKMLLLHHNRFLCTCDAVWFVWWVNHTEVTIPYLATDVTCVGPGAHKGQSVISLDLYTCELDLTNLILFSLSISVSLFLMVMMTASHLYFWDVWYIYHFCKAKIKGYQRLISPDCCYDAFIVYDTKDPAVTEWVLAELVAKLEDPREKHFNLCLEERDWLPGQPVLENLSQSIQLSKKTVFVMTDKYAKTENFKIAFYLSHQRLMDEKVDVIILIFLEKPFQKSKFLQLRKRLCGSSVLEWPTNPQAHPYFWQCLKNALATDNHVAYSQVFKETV

[2] = target: T2, TLR9 (Mus musculus, UniProt Q9EQU3); experiment: CpG-C ISS-induced serum cytokines in 129 mice; assay type: in vivo; settings: CpG-C ISS with IRS, serum at 6 hr, listed as IRS
T2 construct: endogenous in cells; host or cells: 129 mice, whole animal (serum IFN-alpha and IL-6)
T2 sequence (Q9EQU3 26-1032): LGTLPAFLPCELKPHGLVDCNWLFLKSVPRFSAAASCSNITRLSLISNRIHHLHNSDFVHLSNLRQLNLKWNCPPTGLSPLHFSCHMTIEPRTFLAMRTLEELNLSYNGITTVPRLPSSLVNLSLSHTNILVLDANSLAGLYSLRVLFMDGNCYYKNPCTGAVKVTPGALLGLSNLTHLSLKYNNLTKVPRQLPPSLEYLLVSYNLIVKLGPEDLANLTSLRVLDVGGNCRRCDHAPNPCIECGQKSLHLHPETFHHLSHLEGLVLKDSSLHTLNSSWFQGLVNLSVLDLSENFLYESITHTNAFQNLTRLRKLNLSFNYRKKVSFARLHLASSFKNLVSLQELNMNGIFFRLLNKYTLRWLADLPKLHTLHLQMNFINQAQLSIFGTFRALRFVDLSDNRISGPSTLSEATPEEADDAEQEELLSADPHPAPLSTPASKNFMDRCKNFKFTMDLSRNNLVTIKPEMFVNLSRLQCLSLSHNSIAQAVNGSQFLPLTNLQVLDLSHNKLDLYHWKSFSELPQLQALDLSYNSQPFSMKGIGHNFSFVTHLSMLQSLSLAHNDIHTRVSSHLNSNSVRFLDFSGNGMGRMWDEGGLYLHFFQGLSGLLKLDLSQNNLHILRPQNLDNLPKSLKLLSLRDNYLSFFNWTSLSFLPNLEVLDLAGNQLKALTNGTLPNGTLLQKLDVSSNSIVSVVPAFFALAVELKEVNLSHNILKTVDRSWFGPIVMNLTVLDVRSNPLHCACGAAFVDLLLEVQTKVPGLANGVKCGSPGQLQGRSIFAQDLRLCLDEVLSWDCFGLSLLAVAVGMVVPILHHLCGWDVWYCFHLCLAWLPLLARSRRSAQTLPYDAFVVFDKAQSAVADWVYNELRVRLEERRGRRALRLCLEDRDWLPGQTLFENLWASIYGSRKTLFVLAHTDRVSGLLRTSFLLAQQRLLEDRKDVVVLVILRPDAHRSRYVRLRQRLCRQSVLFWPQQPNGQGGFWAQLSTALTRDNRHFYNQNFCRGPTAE
Description: 129 mice were either left untreated or treated with CpG-C ISS (50 μg/mice) alone or with IRS (50 μg/mice) and serum was collected 6 hr later. IFN-α and IL-6 was evaluated by ELISA. n=6 mice per group±standard error of the mean.

[3] = system: PDC; settings: in vitro, with GC
[4] = system: PDC

| Substance | IC50 ([1]; read-out: IC50, IFN-α, FLU) [nM] | IC90 ([1]; read-out: IC90, IFN-α, FLU) [nM] | CpG-ISS-induced activation, serum IFN-α and IL-6 [2] | GC sensitivity of TLR7/9-stimulated PDC [3] | GC-induced neutrophil expansion ([4]; lupus-prone mice, blood) | sensitivity to GC of PDC, cDC and B cells ([4]; lupus-prone mice, spleen and blood) | cell death without GC ([4]; mouse, in vivo) |
| --- | --- | --- | --- | --- | --- | --- | --- |
| 5′-TGC TCC TGG AGI GGT TGT-3′ (DNA TGCTCCTGGAGNGGTTGT; DNA, [I] at 12, backbone and methylation of C not given here) [SEQ ID NO:73] | 13 | 101 |  |  |  |  |  |
| 5′-TGCTCCTGGAGGGGTTGT-3′ (DNA, backbone not given here) [SEQ ID NO:42] |  |  | prevented CpG-ISS-induced activation; also recorded: significantly reduced CpG-C ISS-mediated induction of cytokines | restored GC sensitivity to PDC | reduction of the GC-induced neutrophil expansion | enhanced the sensitivity to GC of PDC, cDC and B cells | did not induce cell death without GC |
